The nature of this data set: Solubility of Utidelone in water and organic solvents. The class given is physicochemical. The method, then: The saturated solubility in water is less than 1 μg/ml, so it is difficult to develop into an oral formulation with suitable bioavailability. At present, the marketed epothilone antitumor drugs such as Utidelone injection and Ixabepilone injection etc., all of which use non-aqueous solvents such as ethanol and polyoxyl castor oil as solvents, are diluted with sodium chloride injection for administration by intravenous infusion. Since polyoxyl castor oil is a strong allergenic substance, antiallergic treatment must be given before intravenous administration, which reduces the compliance of this type of drug in clinical use, increases the adverse reactions of patients, and limits its clinical application.

A word on the solubility: it is the concentration that dissolves in the medium under given conditions. Regarding `C/C1=C/CC(/C(C)=C/c2csc(C)n2)OC(=O)C[C@H](O)C(C)(C)C(=O)[C@H](C)[C@@H](O)[C@@H](C)CCC1` (stereo partly drawn) [Utidelone, 4,8-dihydroxy-5,5,7,9,13-pentamethyl-16-[1-methyl-2-(2-methyl-thiazole-4-yl)-vinyl]-hexadecoxetane-13-en-2,6-one lactone], the “solubility in organic solvents” value (ethanol, methanol, ethyl acetate, chloroform) is on record as “easily soluble”. For the same molecule, where the note is “water”, the “solubility in water” value is listed as “insoluble in water”. Also, the solubility (water, read-out: saturated solubility in water) was below 1 µg/mL.

Values taken from patent US20230048901A1, “SOLID ORAL FORMULATION OF UTIDELONE” (Beijing Biostar Pharmaceuticals Co., Ltd., priority 2020, published 2023).
